Several values for one entry are separate records, joined by “and”; a condition that tells them apart may be missing. Equal values may be shown once.
Assays:
[1] = system: pancreatic cancer patient derived xenograft (PDX) model PA1170; test: Antitumor activity in subcutaneous pancreatic cancer PDX model PA1170 (Biological Example 1); type: in vivo, BALB/c nude mice; details: day 28, Example 24 10 mg/kg i.v. QW, olaparib 50 mg/kg p.o. BID, trametinib 0.3 mg/kg p.o. QD, 4 ws
Text: (§1) Balb/c nude, female, 4-6 weeks, weighing approximately 18-22 g, which were purchased from GemPharmatech Co., Ltd (Nanjing, Jiangsu).
(§2) All of the PDX models were originally established from a surgically resected clinical sample (cancer type: pancreatic adenocarcinoma), and implanted in nude mice defined as passage 0 (P0). The next passage implanted from P0 tumor was defined as passage1 (P1), and so on during continual implantation in mice. The frozen tumor fragments were revived in NOD SCID mice, when the tumors were developed to suitable size, they were passaged to Balb/c nude mice. The P4-P7 tumors were used for the study.
(§3) Each group consisted of 5 tumor-bearing mice.
(§4) The protocol and any amendment(s) or procedures involving the care and use of animals in this study were reviewed and approved by the Institutional Animal Care and Use Committee (IACUC) of CrownBio prior to execution. During the study, the care and use of animals were conducted in accordance with the regulations of the Association for Assessment and Accreditation of Laboratory Animal Care (AAALAC). After tumor inoculation, the animals were checked daily for morbidity and mortality. During routine monitoring, the animals were checked for any effects of tumor growth and treatments on behavior such as mobility, food and water consumption, body weight gain/loss, eye/hair matting and any other abnormalities. Mortality and observed clinical signs were recorded for individual animals in detail.
(§5) After randomization, tumor volumes were measured twice per week in two dimensions using a caliper, and the volume was expressed in mm^3 using the formula: […]
(§6) where V is tumor volume, L is tumor length (the longest tumor dimension) and W is tumor width (perpendicular to L). Body weight was measured twice per week. Dosing as well as tumor and body weight measurements were conducted in a Laminar Flow Cabinet. The body weights and tumor volumes were measured by using StudyDirector™ software (version 3.1.399.19).
(§7) Relative tumor volume (RTV) was calculated using the following formula: […]
(§8) where V1 and Vt are the average tumor volumes on the first day of treatment (day 1) and the average tumor volumes on a certain time point (day t).
(§9) Synergy score was calculated using the following formula described in Clarke R. Issues in experimental design and endpoint analysis in the study of experimental cytotoxic agents in vivo in breast cancer and other models[J]. Breast Cancer Research & Treatment, 1997, 46(2-3):255-278, which is incorporated by reference in its entirety:
(§10) Synergy score=((A/C)×(B/C))/(AB/C),
(§11) where A is RTV value of drug A; B is RTV value of drug B; C is RTV value of vehicle control. AB is RTV value of combination treatment with A and B. Synergy scores: >1 represents synergistic, =1 represents additive, <1 represents antagonistic (referring to Gould S E et al. Translational value of mouse models in oncology drug development. Nature medicine. 2015 21, 431-439).
(§12) Standard NCI procedures were used to calculate tumor parameters. Percent tumor growth inhibition (% T/C) was calculated as the mean RTV of treated tumors (T) divided by the mean RTV of control tumors (C)×100%. The percentage T/C value is an indication of antitumor effectiveness: a value of T/C<42% is considered significant antitumor activity by the NCI. A T/C value <10% is considered to indicate highly significant antitumor activity, and is the level used by the NCI to justify a clinical trial if toxicity and certain other requirements are met (termed DN-2 level activity). A body weight loss nadir (mean of group) of greater than 20%, or greater than 20% of drug deaths are considered to indicate an excessively toxic dosage.
(§13) The antitumor activity curves of test articles were plotted with the observation time on the X-axis, and corresponding tumor volume (geometric mean) on the Y-axis. A two-tailed t-test was employed to analyze the statistical significance of any difference between the treatment group and the control group. […]

[2] = system: pancreatic cancer patient derived xenograft model PA6265; test: Antitumor activity in subcutaneous pancreatic cancer PDX model PA6265 (Biological Example 1); type: in vivo, BALB/c nude mice; details: olaparib 50 mg/kg p.o. BID, trametinib 0.3 mg/kg p.o. QD, 4 weeks; for T/C (%) @ D29: day 29 (text: day 28), Example 24 10 mg/kg i.v. QW; for RTV @ D29: day 29, Example 24 10 mg/kg i.v. QW
Text: as §1, §2, §3, §4, §5, §6, §7, §8, §9, §10, §11, §12, §13

[3] = system: PA1170 pancreatic cancer patient-derived xenograft model; test: Antitumor activity in PA1170 pancreatic cancer PDX model, confirmation study (Biological Example 3); type: in vivo, mice; details: for RTV @ D29 / T/C (%) @ D29: day 29, Example 24 10 mg/kg IV, olaparib 50 mg/kg p.o. BID, trametinib 0.3 mg/kg p.o. QD, 4 weeks
[4] = system: murine pancreatic cancer model mPA6115; test: Antitumor activity in murine pancreatic cancer model mPA6115 (Biological Example 2)
Text: C57BL/6, female, 6-8 weeks, weighing approximately 18-20 g, which were purchased from Shanghai Lingchang Biotechnology Co., Ltd (Shanghai, China).
mPA6115 is a murine pancreatic cancer cell line carries a conditional mutant KRAS (KrasLSL-G12D/WT), a constitutive deletion of TP53 (p53−/−) and a Cre driven by the promoter of Pdx1 gene.
Fresh tumor tissues from mice bearing established primary cancer tissues were harvested and cut into small pieces (approximately 2-3 mm in diameter). Tumor fragments, harvested from donor mice, were inoculated subcutaneously at the upper right dorsal flank into corresponding female C57BL/6 mice for tumor development. Treatments were started when the average tumor size reached approximately 150 mm^3. Randomization were performed based on “Matched distribution” method/“Stratified” method using the multi-task method (StudyDirector™ software, version 3.1.399.19)/randomized block design. Each group consisted of 6 tumor-bearing mice.

[5] = system: Panc-1 human pancreatic cancer xenograft model; details: Panc-1 xenograft, day 27; abraxane 30 mg/kg i.v. QW×3w, gemcitabine 120 mg/kg i.p. QW×3w
[6] = mPA6115, day 21, Example 24 0.2 mg/kg i.v. BIW×3w, abraxane 15 mg/kg i.v. QW×3w, gemcitabine 120 mg/kg i.p. QW×3w

| Structure (SMILES) | RTV @ D28 [1] | T/C (%) @ D28 [1] [%] | T/C (%) @ D28 ([1]; listed as olaparib) [%] | T/C (%) @ D29 [2] [%] | T/C (%) @ D29 ([2]; listed as olaparib) [%] | RTV @ D29 [2] | RTV @ D29 [3] | T/C (%) @ D29 [3] | T/C (%) @ D29 ([3]; listed as olaparib) [%] | T/C (%) @ D28 ([1]; listed as trametinib) [%] | T/C (%) @ D29 ([2]; listed as trametinib) [%] | T/C (%) @ D29 ([3]; listed as trametinib) [%] | antitumor effect (in words) ([4]; mPA6115, day 21, single agent 0.2 mg/kg i.v. BIW×3w) | RTV @ D21 [4, 6] | T/C (%) @ D21 [4, 6] [%] | Response @ D21 ([4]; mPA6115, day 21, animals with PD or died / animals) | RTV @ D27 [5] | T/C (%) @ D27 [5] | Response @ D28 ([3]; responders/animals (CR, SD)) |
| --- | --- | --- | --- | --- | --- | --- | --- | --- | --- | --- | --- | --- | --- | --- | --- | --- | --- | --- | --- |
| O=C(c1cc(Cc2n[nH]c(=O)c3ccccc23)ccc1F)N1CCN(C(=O)C2CC2)CC1 [Olaparib] | 3.09 ± 0.73 | 32.15 | 32 | 71.78 | 72 | 4.07 ± 0.51 | 1.90 ± 1.13 | 22.33% | 22.3 | – | – | – | – | – | – | – | – | – | – |
| CC(=O)Nc1cccc(-n2c(=O)n(C3CC3)c(=O)c3c(Nc4ccc(I)cc4F)n(C)c(=O)c(C)c32)c1 [Trametinib] | 6.59 ± 0.41 | 68.57 | – | 76.01 | – | 4.31 ± 0.98 | 7.34 ± 1.49 | 86.25% | – | 69 | 76 | 86.3 | – | – | – | – | – | – | – |
| CN[C@@H](C)C(=O)N[C@H]1CN(S(=O)(=O)c2cccc(S(=O)(=O)N3CC[C@H]4CC[C@@H](C(=O)NC(c5ccccc5)c5ccccc5)N4C(=O)[C@@H](NC(=O)[C@H](C)NC)C3)c2)CC[C@H]2CCC(C(=O)NC(c3ccccc3)c3ccccc3)N2C1=O (stereo partly drawn) [the compound of Example 24] | – | – | – | – | – | – | 4.29 ± 1.83 | 50.4% and 50.41% | – | – | – | – | no antitumor effect | 32.77 ± 10.36 | 144.28 | 5/6 PD, 1/6 died | 2.63 ± 0.51 | 66.1% and 66.08% | 1/5 SD |

Source: patent US20230029259A1, “COMBINATION OF IAP INHIBITORS AND PARP OR MEK INHIBITORS OR OTHER CHEMOTHERAPEUTIC AGENTS” (Ascentage Pharma (Suzhou) Co., Ltd., priority 2019, published 2023)
